The values below come from patent US6552080B1, “Fungicidal compounds having a fluorovinyl-or fluoropropenyl-oxyphenyloxime moiety and process for the preparation thereof” (Korea Research Institute of Chemical Technology, priority 1999, dated 2003).

Test [1] concerns Phytophthora infestans. The class given is in vivo.
The subject of test [2] is Botrytis cinerae. The test can be described thus: Fungicidal activity against Cucumber Gray Mold Rot (CGM) disease. The class given is in vivo. Particulars: 50 ppm.
Test [3] relates to Puccinia recondita. The test can be described thus: Fungicidal activity against Wheat Leaf Rust (WLR) disease. The class given is in vivo.
The subject of test [4] is Rhizoctonia solani AG-1. The test can be described thus: Fungicidal activity against Rice Sheath Blight (RSB) disease.
Test [5] concerns Erysiphae graminis. Kind of test: Fungicidal activity against Barley Powdery Mildew (BPM) disease. It counts as in vivo.
Test [6] deals with Pyricularia oryzae Carvara KA301. It counts as in vivo.

Where two headings read alike, the source gives them in different places.

`COC=C(C(=O)OC)c1ccccc1CON=C(C)c1cccc(OC(F)=C(c2cc(Cl)cc(Cl)c2)C(F)(F)F)c1` [Compound 164]: the “Fungicidal Activities TLB (C.V.)” value in test [1] (50 ppm) is recorded as 0%. Moreover, the “Fungicidal Activities CGM (C.V.)” value in test [2] is on record as 36%. Also, the “Fungicidal Activities WLR (C.V.)” value in test [3] (2 ppm) turned out to be 60%; in test [3] (10 ppm), 95%; in test [3] (50 ppm) it was 96%. In addition, the “Fungicidal Activities RSB (C.V.)” value in test [4] (50 ppm) was found to be 20%. Moreover, the “Fungicidal Activities BPM (C.V.)” value in test [5] (2 ppm) worked out at 71%; in test [5] (10 ppm) it was 99%; in test [5] (50 ppm), 100%. For the same compound, in test [6] (50 ppm), the “Fungicidal Activities RCV (C.V.)” value turned out to be 41%.
For `COC=C(C(=O)OC)c1ccccc1CON=C(C)c1cccc(OC(F)=C(c2ccc(Br)cc2)C(F)(F)F)c1` [Compound 165], the “Fungicidal Activities TLB (C.V.)” value in test [1] (50 ppm) was determined as 6%. The “Fungicidal Activities CGM (C.V.)” value in test [2] amounted to 68%. The “Fungicidal Activities WLR (C.V.)” value in test [3] (2 ppm) amounted to 86%; in test [3] (10 ppm), 96%; in test [3] (50 ppm), 100%. Also, in test [4] (50 ppm), the “Fungicidal Activities RSB (C.V.)” value amounted to 45%. For the same compound, the “Fungicidal Activities BPM (C.V.)” value in test [5] (2 ppm) is 71%; in test [5] (10 ppm), 99%; in test [5] (50 ppm), 100%. Also, the “Fungicidal Activities RCV (C.V.)” value in test [6] (50 ppm) is given as 80%.
Consider `CON=C(C(=O)OC)c1ccccc1CON=C(C)c1cccc(OC(F)=C(c2ccccc2)C(F)(F)F)c1` [Compound 173], for which the “Fungicidal Activities TLB (C.V.)” value in test [1] (50 ppm) worked out at 20%. The “Fungicidal Activities CGM (C.V.)” value in test [2] is recorded as 25%. Also, the “Fungicidal Activities WLR (C.V.)” value in test [3] (2 ppm) came to 99%; in test [3] (50 ppm) it was 100%. For the same compound, the “Fungicidal Activities RSB (C.V.)” value is 30% in test [4] (2 ppm) and 100% in test [4] (50 ppm). Moreover, the “Fungicidal Activities BPM (C.V.)” value in test [5] (2 ppm) is reported as 99%; in test [5] (50 ppm), 100%. In addition, the “Fungicidal Activities RCV (C.V.)” value is reported as 93% in test [6] (2 ppm) and 97% in test [6] (50 ppm).
For the compound `CON=C(C(=O)OC)c1ccccc1CON=C(C)c1cccc(OC(F)=C(c2cccc(C)c2)C(F)(F)F)c1` [Compound 174], in test [1] (50 ppm), the “Fungicidal Activities TLB (C.V.)” value stood at 0%. For the same compound, the “Fungicidal Activities CGM (C.V.)” value in test [2] is recorded as 0%. Moreover, the “Fungicidal Activities WLR (C.V.)” value is 90% in test [3] (2 ppm) and 100% in test [3] (50 ppm). Also, the “Fungicidal Activities RSB (C.V.)” value in test [4] (2 ppm) was 25%; in test [4] (50 ppm), 60%. For the same compound, the “Fungicidal Activities BPM (C.V.)” value in test [5] (2 ppm) came to 99%; in test [5] (50 ppm), 100%. Further, the figures for the “Fungicidal Activities RCV (C.V.)” value in test [6] (2 ppm) and in test [6] (50 ppm) were 86% and 96%, respectively.
For `CON=C(C(=O)OC)c1ccccc1CON=C(C)c1cccc(OC(F)=C(c2ccc(C)cc2)C(F)(F)F)c1` [Compound 175], the “Fungicidal Activities TLB (C.V.)” value in test [1] (50 ppm) is recorded as 0%. In test [2], the “Fungicidal Activities CGM (C.V.)” value turned out to be 12%. Besides, the entries for the “Fungicidal Activities WLR (C.V.)” value in test [3] (2 ppm) and in test [3] (50 ppm) were 86% and 100%, respectively. The “Fungicidal Activities RSB (C.V.)” value in test [4] (2 ppm) was determined as 10%; in test [4] (50 ppm) it was 65%. Also, the “Fungicidal Activities BPM (C.V.)” value in test [5] (2 ppm) was determined as 83%; in test [5] (50 ppm) it was 100%. Besides, the “Fungicidal Activities RCV (C.V.)” value turned out to be 76% in test [6] (2 ppm) and 96% in test [6] (50 ppm).
Consider `CON=C(C(=O)OC)c1ccccc1CON=C(C)c1cccc(OC(F)=C(c2ccc(C)c(C)c2)C(F)(F)F)c1` [Compound 176], for which, in test [1] (50 ppm), the “Fungicidal Activities TLB (C.V.)” value is recorded as 70%. Also, the “Fungicidal Activities CGM (C.V.)” value in test [2] is reported as 12%. For the same compound, the “Fungicidal Activities WLR (C.V.)” value amounted to 60% in test [3] (2 ppm) and 100% in test [3] (50 ppm). Besides, the “Fungicidal Activities RSB (C.V.)” value came out at 20% in test [4] (2 ppm) and 60% in test [4] (50 ppm). The “Fungicidal Activities BPM (C.V.)” value in test [5] (2 ppm) turned out to be 80%; in test [5] (50 ppm), 100%. In addition, the “Fungicidal Activities RCV (C.V.)” value in test [6] (2 ppm) was determined as 83%; in test [6] (50 ppm) it was 86%.
With `CON=C(C(=O)OC)c1ccccc1CON=C(C)c1cccc(OC(F)=C(c2cccc(OC)c2)C(F)(F)F)c1` [Compound 180], the “Fungicidal Activities TLB (C.V.)” value in test [1] (50 ppm) turned out to be 56%. In addition, in test [2], the “Fungicidal Activities CGM (C.V.)” value is recorded as 56%. For the same compound, the “Fungicidal Activities WLR (C.V.)” value in test [3] (2 ppm) is 97%; in test [3] (50 ppm), 100%. For the same compound, the “Fungicidal Activities RSB (C.V.)” value was determined as 25% in test [4] (2 ppm) and 60% in test [4] (50 ppm). Moreover, the “Fungicidal Activities BPM (C.V.)” value is recorded as 98% in test [5] (2 ppm) and 100% in test [5] (50 ppm). The “Fungicidal Activities RCV (C.V.)” value worked out at 86% in test [6] (2 ppm) and 100% in test [6] (50 ppm).
As to `CON=C(C(=O)OC)c1ccccc1CON=C(C)c1cccc(OC(F)=C(c2ccc(OC)cc2)C(F)(F)F)c1` [Compound 181], the “Fungicidal Activities TLB (C.V.)” value was found to be 68% in test [1] (2 ppm) and 30% in test [1] (50 ppm). Also, in test [2], the “Fungicidal Activities CGM (C.V.)” value is on record as 77%. Besides, the “Fungicidal Activities WLR (C.V.)” value in test [3] (2 ppm) is listed as 83%; in test [3] (50 ppm), 99%. In addition, the “Fungicidal Activities RSB (C.V.)” value in test [4] (2 ppm) was found to be 35%; in test [4] (50 ppm), 45%. The “Fungicidal Activities BPM (C.V.)” value in test [5] (2 ppm) came to 83%; in test [5] (50 ppm) it was 100%. In addition, the “Fungicidal Activities RCV (C.V.)” value in test [6] (2 ppm) worked out at 98%; in test [6] (50 ppm), 95%.
Turning to `CON=C(C(=O)OC)c1ccccc1CON=C(C)c1cccc(OC(F)=C(c2cccc(F)c2)C(F)(F)F)c1` [Compound 182], the “Fungicidal Activities TLB (C.V.)” value came out at 62% in test [1] (2 ppm) and 40% in test [1] (50 ppm). Also, the “Fungicidal Activities CGM (C.V.)” value in test [2] is on record as 77%. For the same compound, the “Fungicidal Activities WLR (C.V.)” value in test [3] (2 ppm) is on record as 95%; in test [3] (50 ppm) it was 100%. Also, the “Fungicidal Activities RSB (C.V.)” value is recorded as 30% in test [4] (2 ppm) and 50% in test [4] (50 ppm). For the same compound, the “Fungicidal Activities BPM (C.V.)” value was determined as 96% in test [5] (2 ppm) and 100% in test [5] (50 ppm). The “Fungicidal Activities RCV (C.V.)” value in test [6] (2 ppm) and in test [6] (50 ppm) was 95% throughout.
Consider `CON=C(C(=O)OC)c1ccccc1CON=C(C)c1cccc(OC(F)=C(c2ccc(F)cc2)C(F)(F)F)c1` [Compound 183], for which the “Fungicidal Activities TLB (C.V.)” value in test [1] (2 ppm) amounted to 12%; in test [1] (50 ppm), 50%. The “Fungicidal Activities CGM (C.V.)” value in test [2] was determined as 56%. Besides, the “Fungicidal Activities WLR (C.V.)” value is 99% in test [3] (2 ppm) and 100% in test [3] (50 ppm). The entries for the “Fungicidal Activities RSB (C.V.)” value in test [4] (2 ppm) and in test [4] (50 ppm) were 20% and 100%, respectively. The “Fungicidal Activities BPM (C.V.)” value in test [5] (2 ppm) and in test [5] (50 ppm) was 100% throughout. In addition, the entries for the “Fungicidal Activities RCV (C.V.)” value in test [6] (2 ppm) and in test [6] (50 ppm) were 99% and 100%, respectively.
As to `CON=C(C(=O)OC)c1ccccc1CON=C(C)c1cccc(OC(F)=C(c2cccc(Cl)c2)C(F)(F)F)c1` [Compound 184], the entries for the “Fungicidal Activities TLB (C.V.)” value in test [1] (2 ppm) and in test [1] (50 ppm) were 0% and 50%, respectively. In addition, the “Fungicidal Activities CGM (C.V.)” value in test [2] is reported as 0%. Further, the results for the “Fungicidal Activities WLR (C.V.)” value in test [3] (2 ppm) and in test [3] (50 ppm) were 98% and 99%, respectively. Also, the results for the “Fungicidal Activities RSB (C.V.)” value in test [4] (2 ppm) and in test [4] (50 ppm) were 20% and 85%, respectively. Further, the “Fungicidal Activities BPM (C.V.)” value stood at 99% in test [5] (2 ppm) and 100% in test [5] (50 ppm). Moreover, the “Fungicidal Activities RCV (C.V.)” value in test [6] (2 ppm) was determined as 90%; in test [6] (50 ppm), 96%.
For `CON=C(C(=O)OC)c1ccccc1CON=C(C)c1cccc(OC(F)=C(c2ccc(Cl)cc2)C(F)(F)F)c1` [Compound 185], the “Fungicidal Activities TLB (C.V.)” value is 25% in test [1] (2 ppm) and 50% in test [1] (50 ppm). In test [2], the “Fungicidal Activities CGM (C.V.)” value was 0%. In addition, the “Fungicidal Activities WLR (C.V.)” value was determined as 95% in test [3] (2 ppm) and 100% in test [3] (50 ppm). Moreover, the “Fungicidal Activities RSB (C.V.)” value in test [4] (2 ppm) was 25%; in test [4] (50 ppm), 75%. Besides, the entries for the “Fungicidal Activities BPM (C.V.)” value in test [5] (2 ppm) and in test [5] (50 ppm) were 98% and 100%, respectively. Further, the “Fungicidal Activities RCV (C.V.)” value in test [6] (2 ppm) amounted to 73%; in test [6] (50 ppm) it was 96%.
With `CON=C(C(=O)OC)c1ccccc1CON=C(C)c1cccc(OC(F)=C(c2cc(Cl)cc(Cl)c2)C(F)(F)F)c1` [Compound 186], the “Fungicidal Activities TLB (C.V.)” value in test [1] (2 ppm) and in test [1] (50 ppm) was 0% throughout. In test [2], the “Fungicidal Activities CGM (C.V.)” value stood at 25%. Also, the “Fungicidal Activities WLR (C.V.)” value worked out at 66% in test [3] (2 ppm) and 99% in test [3] (50 ppm). Also, the “Fungicidal Activities RSB (C.V.)” value in test [4] (2 ppm) worked out at 15%; in test [4] (50 ppm), 50%. Moreover, the “Fungicidal Activities BPM (C.V.)” value in test [5] (2 ppm) was 86%; in test [5] (50 ppm), 100%. In addition, the figures for the “Fungicidal Activities RCV (C.V.)” value in test [6] (2 ppm) and in test [6] (50 ppm) were 73% and 83%, respectively.
`CON=C(C(=O)OC)c1ccccc1CON=C(C)c1cccc(OC(F)=C(c2ccc(Br)cc2)C(F)(F)F)c1` [Compound 187]: the “Fungicidal Activities TLB (C.V.)” value in test [1] (2 ppm) is on record as 25%; in test [1] (50 ppm), 0%. In addition, the “Fungicidal Activities CGM (C.V.)” value in test [2] was determined as 0%. In addition, the figures for the “Fungicidal Activities WLR (C.V.)” value in test [3] (2 ppm) and in test [3] (50 ppm) were 95% and 100%, respectively. The “Fungicidal Activities RSB (C.V.)” value in test [4] (2 ppm) was found to be 20%; in test [4] (50 ppm), 85%. Also, the “Fungicidal Activities BPM (C.V.)” value in test [5] (2 ppm) is reported as 97%; in test [5] (50 ppm) it was 98%. Besides, the “Fungicidal Activities RCV (C.V.)” value in test [6] (2 ppm) was 97%; in test [6] (50 ppm) it was 83%.
